Results reported in US20210038607A1, “OXADIAZOLYLTHIOPHENE DERIVATIVES USEFUL AS HISTONE DEACETYLASE INHIBITORS” (Karus Therapeutics Limited, priority 2018, published 2021).

How the values were obtained:
Human HDAC1 = target: T1, Human HDAC1 (Homo sapiens, UniProt Q13547); test: HDAC1 biochemical assay, AMC-labeled peptide substrate; details: read-out: HDAC Isoform IC50 (nM) 1
T1 construct: full length with C-terminal His-tag and C-terminal FLAG-tag; His (C); FLAG (C); host or cells: baculovirus expression system
T1 sequence (Q13547 whole entry, canonical isoform): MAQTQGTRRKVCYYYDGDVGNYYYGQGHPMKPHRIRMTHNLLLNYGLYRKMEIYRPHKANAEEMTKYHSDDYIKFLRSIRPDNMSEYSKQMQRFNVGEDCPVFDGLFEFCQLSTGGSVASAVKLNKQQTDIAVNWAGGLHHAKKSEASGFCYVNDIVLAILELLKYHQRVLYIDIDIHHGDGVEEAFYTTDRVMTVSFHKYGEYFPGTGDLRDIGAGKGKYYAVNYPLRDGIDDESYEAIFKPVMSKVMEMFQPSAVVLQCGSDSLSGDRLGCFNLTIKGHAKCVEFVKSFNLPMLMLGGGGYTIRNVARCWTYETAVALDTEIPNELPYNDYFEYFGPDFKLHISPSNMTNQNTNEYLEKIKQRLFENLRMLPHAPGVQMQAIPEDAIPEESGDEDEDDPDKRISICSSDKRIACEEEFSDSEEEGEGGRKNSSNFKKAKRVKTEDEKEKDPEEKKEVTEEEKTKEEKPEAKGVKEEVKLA
Method in brief: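 Baculovirus-expressed full-length human HDAC1 with His and FLAG tags, 0.3 ng/ul, incubated 1 h at 30° C with compound and 50 μM RHKK(Ac)AMC in Tris pH 8.0 buffer with BSA and 1% DMSO. Developer then releases AMC from deacetylated substrate; fluorescence read at 360/460 nm.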

Human HDAC2 = target: T2, Human HDAC2 (Homo sapiens, UniProt Q92769); test: HDAC2 biochemical assay, AMC-labeled peptide substrate; details: read-out: HDAC Isoform IC50 (nM) 2
T2 construct: full length with C-terminal GST-tag; GST (C); host or cells: baculovirus expression system
T2 sequence (Q92769 whole entry, canonical isoform): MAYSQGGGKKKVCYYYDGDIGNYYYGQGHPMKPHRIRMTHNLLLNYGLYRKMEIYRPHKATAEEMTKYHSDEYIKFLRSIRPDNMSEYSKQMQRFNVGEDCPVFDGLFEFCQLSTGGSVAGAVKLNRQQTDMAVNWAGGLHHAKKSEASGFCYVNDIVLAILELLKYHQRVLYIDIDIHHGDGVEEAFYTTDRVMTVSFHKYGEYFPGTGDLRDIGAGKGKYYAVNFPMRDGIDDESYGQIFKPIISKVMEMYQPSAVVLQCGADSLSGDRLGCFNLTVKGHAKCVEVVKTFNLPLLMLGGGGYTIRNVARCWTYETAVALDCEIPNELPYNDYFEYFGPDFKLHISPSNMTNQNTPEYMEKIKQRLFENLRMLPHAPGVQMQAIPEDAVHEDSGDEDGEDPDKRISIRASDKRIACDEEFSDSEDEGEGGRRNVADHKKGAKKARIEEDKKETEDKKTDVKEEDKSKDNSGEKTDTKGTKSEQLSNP
Experimental: (§1) Activity against all zinc-dependent HDACs 1 to 11 was assessed by using an acetylated AMC-labeled peptide substrate. The substrate RHKK(Ac)AMC was used for HDAC1, HDAC2, HDAC3, HDAC6 and HDAC10; the substrate used for HDAC8 was RHK(Ac)K(Ac)AMC. Activity against the class IIa HDACs (HDAC4, 5, 7, 9) and HDAC11 was determined using a class IIa-specific substrate, BOC-Lys(trifluoroacetyl)-AMC (“Trifluoroacetyl Lysine”; see Lahm et al, 2007, PNAS, 104, 17335-17340). All assays were based on the AMC-labeled substrate and developer combination.
(§2) The protocol involved a two-step reaction: first, the substrate with the acetylated lysine side chain is incubated with a sample containing HDAC activity, to produce the deacetylated products, which are then digested in the second step by the addition of developer to produce the fluorescent signal proportional to the amount of deacetylated substrates.
Human HDAC2 (GenBank Accession No. NM_001527), full length with C-terminal GST-tag, MW=82.9 kDa, expressed inbaculovirus expression system.
(§3) Assay Buffer: 50 mM Tris-HCl, pH8.0, 137 mM NaCl, 2.7 mM KCl, 1 mM MgC2. Before use, 1 mg/mL BSA and DMSO are added.
HDAC2: 0.07 ng/ul HDAC2 and 50 μM HDAC substrate are in the reaction buffer with 1% DMSO final. Incubate for 1 hour at 30° C.
(§4) Stage 1: Deacetylation of substrate by incubation of HDAC enzymes with compounds
(§5) Stage 2: Development by addition of Developer to digest the deacetylated substrate, and generate the fluorescent colour; Detection: 360/460 Ex/Em

[1] = target: T3, Complex of human HDAC3 and human NCOR2 (Homo sapiens, UniProt O15379); test: HDAC3 biochemical assay, AMC-labeled peptide substrate; details: read-out: HDAC Isoform IC50 (nM) 3
T3 construct: full length with C-terminal His tag, MW=49.7 kDa; His (C); host or cells: baculovirus expression system (co-expressed)
T3 sequence (O15379 whole entry, canonical isoform): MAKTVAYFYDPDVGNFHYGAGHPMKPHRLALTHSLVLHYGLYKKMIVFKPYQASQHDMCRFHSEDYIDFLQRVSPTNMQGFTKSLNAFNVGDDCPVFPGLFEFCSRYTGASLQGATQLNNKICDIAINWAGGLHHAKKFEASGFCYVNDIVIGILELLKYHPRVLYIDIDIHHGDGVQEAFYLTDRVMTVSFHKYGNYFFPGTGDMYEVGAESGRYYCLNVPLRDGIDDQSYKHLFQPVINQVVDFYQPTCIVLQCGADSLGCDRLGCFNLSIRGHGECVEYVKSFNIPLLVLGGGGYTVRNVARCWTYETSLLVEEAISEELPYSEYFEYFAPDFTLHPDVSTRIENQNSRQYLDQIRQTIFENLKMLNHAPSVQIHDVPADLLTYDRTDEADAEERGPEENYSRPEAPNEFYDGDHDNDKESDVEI
T3 sequence (Q9Y618 395-489 partner limits assumed): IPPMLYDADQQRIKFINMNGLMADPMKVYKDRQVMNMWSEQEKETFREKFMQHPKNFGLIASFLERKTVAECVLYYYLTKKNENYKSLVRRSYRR
Experimental: as §1, §2
Complex of human HDAC3 (GenBank Accession No. NM_003883), full length with C-terminal His tag, MW=49.7 kDa, and human NCOR2 (amino acid 395-489) (GenBank Accession No. NM_006312), N-terminal GST tag, MW=37.6 kDa, co-expressed in baculovirus expression system.
as §3
HDAC3: 0.1 ng/ul HDAC3 and 50 μM HDAC substrate are in the reaction buffer with 1% DMSO final. Incubate for 1 hour at 30° C.
as §4, §5

Human HDAC5 = target: T4, Human HDAC5 (Homo sapiens, UniProt Q9UQL6); test: HDAC5 biochemical assay, class IIa-specific substrate; details: read-out: HDAC Isoform IC50 (nM) 5
T4 construct: full length with C-terminal His tag, MW=51.1 kDa; His (C); host or cells: baculovirus expression system
T4 sequence (Q9UQL6 656-1122 limits assumed): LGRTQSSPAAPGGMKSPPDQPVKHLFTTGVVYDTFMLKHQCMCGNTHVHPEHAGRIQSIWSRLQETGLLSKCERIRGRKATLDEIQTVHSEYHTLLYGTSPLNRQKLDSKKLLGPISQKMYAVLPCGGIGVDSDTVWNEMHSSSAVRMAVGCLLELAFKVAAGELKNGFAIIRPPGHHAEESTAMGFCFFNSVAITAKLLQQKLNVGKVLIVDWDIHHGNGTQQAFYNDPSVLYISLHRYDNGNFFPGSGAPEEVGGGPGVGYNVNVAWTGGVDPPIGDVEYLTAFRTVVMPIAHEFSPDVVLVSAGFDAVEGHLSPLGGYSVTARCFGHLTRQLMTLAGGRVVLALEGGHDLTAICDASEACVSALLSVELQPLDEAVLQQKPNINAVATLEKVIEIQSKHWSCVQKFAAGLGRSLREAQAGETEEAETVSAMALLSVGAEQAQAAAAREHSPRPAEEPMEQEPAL
Method in brief: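 Full-length C-terminal His-tagged HDAC5 from baculovirus (0.05 ng/ul) incubated 30 min at room temperature with 50 μM Boc-Lys(trifluoroacetyl)-AMC and compound, Tris pH 8.0 buffer with BSA, 1% DMSO. Developer then releases AMC; fluorescence 360/460 nm.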

Human HDAC10 = target: T5, Human HDAC10 (Homo sapiens, UniProt Q969S8); test: HDAC10 biochemical assay, AMC-labeled peptide substrate; details: read-out: HDAC Isoform IC50 (nM) 10
T5 construct: Human HDAC10 (a.a. 1-481); GST (N); His (C); host or cells: baculovirus expression system
T5 sequence (Q969S8 1-481): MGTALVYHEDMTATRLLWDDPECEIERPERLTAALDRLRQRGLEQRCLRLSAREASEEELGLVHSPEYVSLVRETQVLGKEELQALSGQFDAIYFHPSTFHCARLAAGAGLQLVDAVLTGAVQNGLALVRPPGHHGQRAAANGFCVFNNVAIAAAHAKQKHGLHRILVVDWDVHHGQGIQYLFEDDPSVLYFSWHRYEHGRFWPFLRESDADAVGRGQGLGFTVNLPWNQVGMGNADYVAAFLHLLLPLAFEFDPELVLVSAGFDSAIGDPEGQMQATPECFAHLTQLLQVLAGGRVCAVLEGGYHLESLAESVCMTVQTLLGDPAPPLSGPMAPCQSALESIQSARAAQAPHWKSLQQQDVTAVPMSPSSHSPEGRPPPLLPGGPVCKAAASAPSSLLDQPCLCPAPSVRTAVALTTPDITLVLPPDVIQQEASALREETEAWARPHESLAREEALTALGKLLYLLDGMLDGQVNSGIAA
Experimental: as §1, §2
Human HDAC10 (a.a. 1-481), GenBank Accession No. NM_032019 with N-terminal GST tag and C-terminal His tag, MW=78 kDa, expressed in baculovirus expression system.
as §3
HDAC10: 12 ng/ul HDAC10 and 50 μM HDAC substrate are in the reaction buffer with 1% DMSO final. Incubate for 2 hours at 30° C.
as §4, §5

SMILES | IC50 (Human HDAC1) | IC50 (Human HDAC2) | IC50 [1] | IC50 (Human HDAC5) | IC50 (Human HDAC10)
OC1(c2cnnc(N(Cc3ccc(-c4noc(C(F)(F)F)n4)s3)c3cnccn3)c2)COC1 [Example GW, 3-{6-[(Pyrazin-2-yl)({5-[5-(trifluoromethyl)-1,2,4-oxadiazol-3-yl]thiophen-2-yl}methyl)amino]pyridazin-4-yl}oxetan-3-ol] | > 10000 nM | > 10000 nM | > 10000 nM | ≤ 10000 nM | > 10000 nM
FC(F)(F)c1cnnc(N(Cc2ccc(-c3noc(C(F)(F)F)n3)s2)c2cc(C(F)(F)F)cnn2)c1 [Example EU, 5-(Trifluoromethyl)-N-({5-[5-(trifluoromethyl)-1,2,4-oxadiazol-3-yl]thiophen-2-yl}methyl)-N-[5-(trifluoromethyl)pyridazin-3-yl]pyridazin-3-amine] | > 10000 nM |  |  | ≤ 10000 nM | 
NC(=O)c1cnnc(N(Cc2ccc(-c3noc(C(F)(F)F)n3)s2)c2cnccn2)c1 [Example DX, 6-[(Pyrazin-2-yl)({5-[5-(trifluoromethyl)-1,2,4-oxadiazol-3-yl]thiophen-2-yl}methyl)amino]pyridazine-4-carboxamide] | > 10000 nM | > 10000 nM | ≤ 10000 nM | ≤ 500 nM | > 10000 nM
O=C(c1cnnc(N(Cc2ccc(-c3noc(C(F)(F)F)n3)s2)c2cnccn2)c1)N1CCC12COC2 [Example GF, 5-{6-Oxa-1-azaspiro[3.3]heptane-1-carbonyl}-N-(pyrazin-2-yl)-N-({5-[5-(trifluoromethyl)-1,2,4-oxadiazol-3-yl]thiophen-2-yl}methyl)pyridazin-3-amine] | > 10000 nM | > 10000 nM | > 10000 nM | ≤ 500 nM | > 10000 nM
FC(F)(F)c1cnc(N(Cc2ccc(-c3noc(C(F)(F)F)n3)s2)c2cnccn2)cn1 [Example BK, N-(Pyrazin-2-yl)-5-(trifluoromethyl)-N-({5-[5-(trifluoromethyl)-1,2,4-oxadiazol-3-yl]thiophen-2-yl}methyl)pyrazin-2-amine] | > 10000 nM | > 10000 nM | > 10000 nM | ≤ 10000 nM | > 10000 nM
CC(=O)Nc1cnnc(N(Cc2ccc(-c3noc(C(F)(F)F)n3)s2)c2cnccn2)c1 [Example FM, N-{6-[(Pyrazin-2-yl)({5-[5-(trifluoromethyl)-1,2,4-oxadiazol-3-yl]thiophen-2-yl}methyl)amino]pyridazin-4-yl}acetamide] | ≤ 10000 nM | > 10000 nM | > 10000 nM | ≤ 500 nM | > 10000 nM
CNC(=O)c1cnnc(N(Cc2ccc(-c3noc(C(F)(F)F)n3)s2)c2cnccn2)c1 [Example DY, N-Methyl-6-[(pyrazin-2-yl)({5-[5-(trifluoromethyl)-1,2,4-oxadiazol-3-yl]thiophen-2-yl}methyl)amino]pyridazine-4-carboxamide] | > 10000 nM | > 10000 nM | > 10000 nM | ≤ 1000 nM | > 10000 nM
COC1CN(Cc2ccnc(N(Cc3ccc(-c4noc(C(F)(F)F)n4)s3)c3cnccn3)c2)C1 [Example GH, N-{4-[(3-Methoxyazetidin-1-yl)methyl]pyridin-2-yl}-N-({5-[5-(trifluoromethyl)-1,2,4-oxadiazol-3-yl]thiophen-2-yl}methyl)pyrazin-2-amine] | > 10000 nM | > 10000 nM | > 10000 nM | ≤ 1000 nM | > 10000 nM
O=C(c1ccc(N(Cc2ccc(-c3noc(C(F)(F)F)n3)s2)c2cnccn2)nn1)N1C[C@@H]2C[C@H]1C[S@@+]2[O-] [Example FR, (1S,2R,4S)-5-{6-[(Pyrazin-2-yl)({5-[5-(trifluoromethyl)-1,2,4-oxadiazol-3-yl]thiophen-2-yl}methyl)amino]pyridazine-3-carbonyl}-2-thia-5-azabicyclo[2.2.1]heptan-2-ium-2-olate] | ≤ 10000 nM | > 10000 nM | ≤ 10000 nM | ≤ 500 nM | > 10000 nM
Fc1ccnc(N(Cc2ccc(-c3noc(C(F)(F)F)n3)s2)c2cnccn2)c1 [Example AG, N-(4-Fluoropyridin-2-yl)-N-({5-[5-(trifluoromethyl)-1,2,4-oxadiazol-3-yl]thiophen-2-yl}methyl)pyrazin-2-amine] | > 10000 nM | > 10000 nM | > 10000 nM | ≤ 10000 nM | > 10000 nM
O=C(c1cnnc(N(Cc2ccc(-c3noc(C(F)(F)F)n3)s2)c2cnccn2)c1)N1CC(O)(C(F)(F)F)C1 [Example GD, 1-{6-[(Pyrazin-2-yl)({5-[5-(trifluoromethyl)-1,2,4-oxadiazol-3-yl]thiophen-2-yl}methyl)amino]pyridazine-4-carbonyl}-3-(trifluoromethyl)azetidin-3-ol] | ≤ 10000 nM | > 10000 nM | ≤ 10000 nM | ≤ 1000 nM | > 10000 nM
Cc1nccnc1N(Cc1ccc(-c2noc(C(F)(F)F)n2)s1)c1cnccn1 [Example BE, 3-Methyl-N-(pyrazin-2-yl)-N-({5-[5-(trifluoromethyl)-1,2,4-oxadiazol-3-yl]thiophen-2-yl}methyl)pyrazin-2-amine] | > 10000 nM | > 10000 nM | > 10000 nM | ≤ 500 nM | > 10000 nM
COC1CN(C(=O)c2ccc(N(Cc3ccc(-c4noc(C(F)(F)F)n4)s3)c3cnccn3)nn2)C1 [Example DR, 6-(3-Methoxyazetidine-1-carbonyl)-N-(pyrazin-2-yl)-N-({5-[5-(trifluoromethyl)-1,2,4-oxadiazol-3-yl]thiophen-2-yl}methyl)pyridazin-3-amine] | ≤ 10000 nM | > 10000 nM | ≤ 10000 nM | ≤ 500 nM | > 10000 nM
FC(F)(F)c1cnnc(N(Cc2ccc(-c3noc(C(F)(F)F)n3)s2)c2cccnn2)c1 [Example ER, N-(Pyridazin-3-yl)-5-(trifluoromethyl)-N-({5-[5-(trifluoromethyl)-1,2,4-oxadiazol-3-yl]thiophen-2-yl}methyl)pyridazin-3-amine] | > 10000 nM |  |  | ≤ 10000 nM | 
COc1cncc(N(Cc2ccc(-c3noc(C(F)(F)F)n3)s2)c2cc(C(F)(F)F)cnn2)n1 [Example EN, N-(6-Methoxypyrazin-2-yl)-5-(trifluoromethyl)-N-({5-[5-(trifluoromethyl)-1,2,4-oxadiazol-3-yl]thiophen-2-yl}methyl)pyridazin-3-amine] | > 10000 nM |  |  | ≤ 10000 nM | 
